According to patent publication US20240217957A1, “HETEROCYCLIC COMPOUND AND USE THEREOF” (TAKEDA PHARMACEUTICAL COMPANY LIMITED, priority 2022, published 2024):

Target: T1, human OX2 receptor (Homo sapiens, UniProt O43614)
T1 construct: expressed in transfected cells
T1 sequence (O43614 1-444): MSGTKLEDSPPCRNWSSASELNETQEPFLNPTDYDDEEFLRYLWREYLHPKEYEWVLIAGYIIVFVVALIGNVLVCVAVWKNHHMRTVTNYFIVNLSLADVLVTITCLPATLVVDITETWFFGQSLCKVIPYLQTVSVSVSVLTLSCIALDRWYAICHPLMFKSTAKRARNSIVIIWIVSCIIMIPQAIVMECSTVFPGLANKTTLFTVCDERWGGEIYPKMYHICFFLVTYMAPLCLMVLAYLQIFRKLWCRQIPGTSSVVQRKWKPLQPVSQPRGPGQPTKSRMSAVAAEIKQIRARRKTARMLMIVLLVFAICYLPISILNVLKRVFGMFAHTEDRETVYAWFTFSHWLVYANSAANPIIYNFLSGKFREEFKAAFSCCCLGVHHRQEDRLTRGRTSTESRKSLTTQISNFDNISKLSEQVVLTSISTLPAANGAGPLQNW
Assay: Measurement of orexin type 2 receptor agonist activity (calcium fluorescence, Fluo-4 AM, FDSS)
Format: cell-based
Conditions: compound at 3 μM; CHO cells forcibly expressing human OX2 receptor; DMSO = 0%, 10 nM orexin A (human) = 100%
Description: In order to obtain cell clones that stably express human orexin type 2 receptor, human orexin type 2 (residues 1-444, NCBI Reference Sequence: AK314279) was constructed in a pcDNA3.1 (+) vector (Invitrogen) to express in mammalian cells. This plasmid DNA was transfected into CHO-K1 cells by electroporation, and stable clones were obtained by limiting dilution using resistance to G418 as a selection marker.
CHO cells in which human OX2 receptor was forcibly expressed were seeded at 10,000 cells/well into a 384-well black transparent bottom plate (BD falcon), and were incubated at 37° C., 5% CO2 for 1 day after incubation at room temperature for 30 minutes. After removing the cell plate medium, assay buffer containing calcium indicator A (HBSS (Thermo Fisher Scientific), 20 mM HEPES (Thermo Fisher Scientific), 0.1% BSA (Sigma-Aldrich), 2.5 μg/mL Fluo-4 AM (Dojin Kagaku), 0.08% Pluronic F127 (Dojin Kagaku), 1.25 mM probenecid (Dojin Kagaku)) was added at 30 μL/well. After incubation in a 5% CO2 incubator at 37° C. for 30 minutes, it was incubated at room temperature for another 30 minutes. Add 10 μL/well of the test compound diluted with assay buffer B (HBSS, 20 mM HEPES, 0.1% BSA), and use FDSS uCELL (Hamamatsu Photonics) to measure the fluorescence value every 1 second for 1 minute, and then every 2 seconds for […]. It was measured for 1 minute and 40 seconds. The amount of fluorescence value when DMSO is added instead of the test compound is defined as 0%, and the amount of fluorescence value when orexin A (human) (Peptide Institute) with a final concentration of 10 nM is added is defined as 100%. The activity (%) of the test compound was calculated.

SMILES	OX2R agonist activity (3 μM, %) [%]
Cc1cnc([C@@H]2CC(N3C[C@H](F)[C@H](NS(=O)(=O)C4(F)CC4)C3)=NO2)c(-c2c(F)cccc2F)c1 (single isomer, unassigned) [Example 117, optical isomer of N-[(3R,4S)-1-{(5S)-5-[3-(2,6-difluorophenyl)-5-methylpyridin-2-yl]-4,5-dihydro-1,2-oxazol-3-yl}-4-fluoropyrrolidin-3-yl]-1-fluorocyclopropane-1-sulfonamide or N-[(3S,4R)-1-{(5S)-5-[3-(2,6-difluorophenyl)-5-methylpyridin-2-yl]-4,5-dihydro-1,2-oxazol-3-yl}-4-fluoropyrrolidin-3-yl]-1-fluorocyclopropane-1-sulfonamide]	105
C[C@]1(F)CN(C2=NOC(c3c(F)cccc3-c3c(F)cccc3F)C2)C[C@H]1NS(C)(=O)=O (single isomer, unassigned) [Example 155, N-{(3R,4S)-4-fluoro-4-methyl-1-[5-(2′,3,6′-trifluoro[1,1′-biphenyl]-2-yl)-4,5-dihydro-1,2-oxazol-3-yl]pyrrolidin-3-yl}methanesulfonamide or N-{(3S,4R)-4-fluoro-4-methyl-1-[5-(2′,3,6′-trifluoro[1,1′-biphenyl]-2-yl)-4,5-dihydro-1,2-oxazol-3-yl]pyrrolidin-3-yl)methanesulfonamide]	99
C[C@]1(F)CN(C2=NOC(c3c(F)cc(F)cc3-c3c(F)cccc3F)C2)C[C@H]1NS(C)(=O)=O (single isomer, unassigned) [Example 164]	97
CS(=O)(=O)N[C@H]1CCN(C2=NOC(c3ccccc3-c3c(F)cccc3F)C2)C1 (stereo partly drawn) [Example 1, N-{(3S)-1-[5-(2′,6′-difluoro[1,1′-biphenyl]-2-yl)-4,5-dihydro-1,2-oxazol-3-yl]pyrrolidin-3-yl}methanesulfonamide]	103
CS(=O)(=O)N[C@H]1CCN(C2=NOC(c3ccccc3C3=CCCCC3)C2)C1 (stereo partly drawn) [Example 2, N-{(3S)-1-[5-(2′,3′,4′,5′-tetrahydro[1,1′-biphenyl]-2-yl)-4,5-dihydro-1,2-oxazol-3-yl]pyrrolidin-3-yl}methanesulfonamide]	77
CCS(=O)(=O)N[C@H]1CCN(C2=NOC(c3ccccc3-c3c(F)cccc3F)C2)C1 (stereo partly drawn) [Example 3, N-{(3S)-1-[5-(2′,6′-difluoro[1,1′-biphenyl]-2-yl)-4,5-dihydro-1,2-oxazol-3-yl]pyrrolidin-3-yl}ethanesulfonamide]	95
CS(=O)(=O)N[C@@H]1CN(C2=NOC(c3ccccc3-c3c(F)cccc3F)C2)CC1(F)F (stereo partly drawn) [Example 4, N-{(3R)-1-[5-(2′,6′-difluoro[1,1′-biphenyl]-2-yl)-4,5-dihydro-1,2-oxazol-3-yl]-4,4-difluoropyrrolidin-3-yl}methanesulfonamide]	104
CS(=O)(=O)NC1CCN(C2=NOC(c3ccccc3-c3c(F)cccc3F)C2)CC1 (stereo not drawn) [Example 7, N-{1-[5-(2′,6′-difluoro[1,1′-biphenyl]-2-yl)-4,5-dihydro-1,2-oxazol-3-yl]piperidin-4-yl}methanesulfonamide]	53
CCS(=O)(=O)N[C@H]1CCN(C2=NOC(c3cc(C(F)(F)F)nn3-c3c(F)cccc3F)C2)C1 (stereo partly drawn) [Example 9, N-[(3S)-1-{5-[1-(2,6-difluorophenyl)-3-(trifluoromethyl)-1H-pyrazol-5-yl]-4,5-dihydro-1,2-oxazol-3-yl}pyrrolidin-3-yl]ethanesulfonamide]	13

Results, then the compound that gave them:

OX2R agonist activity (3 μM, %) [%]	SMILES
99	Cc1cnc([C@@H]2CC(N3C[C@@H](NS(C)(=O)=O)[C@@](C)(F)C3)=NO2)c(-c2c(F)cccc2F)c1 (mixture of isomers) [Example 51, mixture of N-[(3R,4S)-1-{(5S)-5-[3-(2,6-difluorophenyl)-5-methylpyridin-2-yl]-4,5-dihydro-1,2-oxazol-3-yl}-4-fluoro-4-methylpyrrolidin-3-yl]methanesulfonamide and N-[(3S,4R)-1-{(5S)-5-[3-(2,6-difluorophenyl)-5-methylpyridin-2-yl]-4,5-dihydro-1,2-oxazol-3-yl}-4-fluoro-4-methylpyrrolidin-3-yl]methanesulfonamide]
17	Cc1cnc([C@@H]2CC(O[C@@H]3CC[C@H](NS(C)(=O)=O)C3)=NO2)c(-c2c(F)cc(F)cc2F)c1 (mixture of isomers) [Example 62, mixture of N-[(1R,3S)-3-({(5S)-5-[5-methyl-3-(2,4,6-trifluorophenyl)pyridin-2-yl]-4,5-dihydro-1,2-oxazol-3-yl}oxy)cyclopentyl]methanesulfonamide and N-[(1S,3R)-3-({(5S)-5-[5-methyl-3-(2,4,6-trifluorophenyl)pyridin-2-yl]-4,5-dihydro-1,2-oxazol-3-yl}oxy)cyclopentyl]methanesulfonamide]
108	Cc1cnc([C@@H]2CC(N3C[C@@H](C)[C@H](NS(C)(=O)=O)C3)=NO2)c(-c2c(F)cccc2F)c1 (single isomer, unassigned) [Example 71, optical isomer of N-[(3S,4R)-1-{(5S)-5-[3-(2,6-difluorophenyl)-5-methylpyridin-2-yl]-4,5-dihydro-1,2-oxazol-3-yl}-4-methylpyrrolidin-3-yl]methanesulfonamide or N-[(3R,4S)-1-{(5S)-5-[3-(2,6-difluorophenyl)-5-methylpyridin-2-yl]-4,5-dihydro-1,2-oxazol-3-yl}-4-methylpyrrolidin-3-yl]methanesulfonamide]
105	Cc1cnc([C@@H]2CC(N3C[C@@H](NS(C)(=O)=O)[C@@](C)(F)C3)=NO2)c(-c2c(F)cc(F)cc2F)c1 (single isomer, unassigned) [Example 75, optical isomer of N-[(3R,4S)-4-fluoro-4-methyl-1-{(5S)-5-[5-methyl-3-(2,4,6-trifluorophenyl)pyridin-2-yl]-4,5-dihydro-1,2-oxazol-3-yl}pyrrolidin-3-yl]methanesulfonamide or N-[(3S,4R)-4-fluoro-4-methyl-1-{(5S)-5-[5-methyl-3-(2,4,6-trifluorophenyl)pyridin-2-yl]-4,5-dihydro-1,2-oxazol-3-yl}pyrrolidin-3-yl]methanesulfonamide]
98	Cc1cnc([C@@H]2CC(N3C[C@H](F)[C@H](NS(=O)(=O)C4(F)CC4)C3)=NO2)c(-c2c(F)cc(F)cc2F)c1 (single isomer, unassigned) [Example 107, optical isomer of 1-fluoro-N-[(3R,4S)-4-fluoro-1-{(5S)-5-[5-methyl-3-(2,4,6-trifluorophenyl)pyridin-2-yl]-4,5-dihydro-1,2-oxazol-3-yl}pyrrolidin-3-yl]cyclopropane-1-sulfonamide or 1-fluoro-N-[(3S,4R)-4-fluoro-1-{(5S)-5-[5-methyl-3-(2,4,6-trifluorophenyl)pyridin-2-yl]-4,5-dihydro-1,2-oxazol-3-yl}pyrrolidin-3-yl]cyclopropane-1-sulfonamide]
103	C[C@]1(F)CN(C2=NOC(c3c(F)ccc(F)c3-c3c(F)cccc3F)C2)C[C@H]1NS(C)(=O)=O (single isomer, unassigned) [Example 168]
106	CS(=O)(=O)N[C@H]1CCCN(C2=NOC(c3ccccc3-c3c(F)cccc3F)C2)CC1 (stereo partly drawn) [Example 5, N-{(4S)-1-[5-(2′,6′-difluoro[1,1′-biphenyl]-2-yl)-4,5-dihydro-1,2-oxazol-3-yl]azepan-4-yl}methanesulfonamide]
98	CS(=O)(=O)N[C@H]1CCCN(C2=NOC(c3ccccc3-c3c(F)cccc3F)C2)C1 (stereo partly drawn) [Example 6, N-{(3S)-1-[5-(2′,6′-difluoro[1,1′-biphenyl]-2-yl)-4,5-dihydro-1,2-oxazol-3-yl]piperidin-3-yl}methanesulfonamide]
104	CCS(=O)(=O)N[C@H]1CCN(C2=NOC(c3ccc(C)cc3-c3c(F)cccc3F)C2)C1 (stereo partly drawn) [Example 8, N-{(3S)-1-[5-(2′,6′-difluoro-5-methyl[1,1′-biphenyl]-2-yl)-4,5-dihydro-1,2-oxazol-3-yl]pyrrolidin-3-yl}ethanesulfonamide]
